This assay deals with cytokine levels in differentiated THP-1 cells treated with LPS. Nature of the assay: THP-1 human cellular LPS cytokine assay, four independent experiments, per cytokine. The settings on record: LPS 20 ng/mL. It is filed as cell-based.

For the molecule `C[C@@H]1C[C@H]2[C@@H]3CCC4=CC(=O)C=C[C@]4(C)[C@@]3(F)[C@@H](O)C[C@]2(C)[C@@]1(O)C(=O)CO` [Dexamethasone, dexamethasone], the Average cytokine suppression came out at 50.17%. Besides, where the note is “2 µM”, the EGF suppression is given as 0.74%, the FGF-β suppression is listed as −18.23%, the Flt-3L suppression was determined as 57.45% and the IFNγ suppression was 56.19%. For the setting “2 µM”, the IL-1α suppression turned out to be 77.5%, the IL-1β suppression came to 67.84%, the IL-4 suppression stood at 56.32% and the IL-6 suppression amounted to 90.56%. Also, under “2 µM”, the IL-7 suppression was 64.36%, the IL-10 suppression was found to be 74.07%, the “IL-12 p70 suppression” value came to 1.37% and the IL-15 suppression is recorded as 29.2%. Further, where the note is “2 µM”, the IL-18 suppression was −15.38%, the IP-10 suppression was 64.85%, the MCP-1 suppression is listed as 83.18% and the MIP-1β suppression is 73.58%. Where the note is “2 µM”, this molecule registered a TNFα suppression of 45.33% and a TNFβ suppression of 72.69%.

For the origin of these results see US12678451B2, “Cannabinoid and omega fatty acid compositions and methods of using” (GreenWay Herbal Products, LLC, priority 2019, dated 2026).
